As a reminder, the pIC50 is the IC50 on a negative log10 scale, so that one unit is a factor of ten.

The target of this test is T1, human Nav1.8 (hNav1.8) ion channel (Homo sapiens, UniProt Q9Y5Y9).
T1 construct: expressed in transfected cells
The test is described as follows: Nav1.8 inhibition, estimated IC50 (Nav1.8 fluorescence, PatchXpress and/or IonFlux HT automated patch clamp assay). Format: cell-based. To be noted: HEK293 cells stably expressing hNav1.8; determined using one or more of the described methods; read-out: Activity range (estimated IC50). How it is done: The ability of pyridine carboxamide derivatives exemplified above to inhibit the Nav1.8 channel was determined using one or more of the methods described below.
HEK Nav1.8 β1/β2 Stably Expressing Cell Line
A HEK293 cell line stably expressing the human Nav1.8 (hNav1.8) ion channel with β1/β2 subunits was constructed. The cell line is suitable for IC50 determination in fluorescence and electrophysiological based assays. It is also suitable to conduct mechanism of action pharmacology studies in electrophysiological assays. HEK293 Nav1.8 cells are grown as adherent monolayers in DMEM/high glucose media, 10% fetal bovine serum, Na pyruvate (2 mM), Hepes (10 mM) with selection agents G418 (400 mg/L) and puromycin (0.5 mg/L) at 37 degrees C., 10% CO2.
Nav1.8 Fluorescence Inhibition Assay
Compounds were made up to or supplied as a 10-mM stock solution using DMSO as the vehicle. Concentration-response curves were generated using a Matrix multichannel pipettor. Compound source plates were made by diluting 10 mM compound stocks to create 500 μM (100×) solutions in DMSO in 96-well v-bottom plates. Compounds were then serially diluted in 100% DMSO to generate a 5 point, 4-fold dilution scheme dose response curve. 2 μL of the 100× dose response curves were then added to preincubation and stimulation assay plates. 100 μL of pre-incubation buffer and 200 μl of stimulation buffer was then added to the plates resulting in a final assay test concentration range of 5 μM to 0.02 μM with a final DMSO concentration of 1%.
On the day of assay, plates were washed to remove cell culture media using 2K EBSS buffer (135 mM NaCl, 2 mM KCl, 5 mM Glucose, 2 mM CaCl2, 1 mM MgCl2, 10 mM HEPES, pH 7.4). The Na-sensitive fluorescent dye, Asante Natrium Green-2 (ANG-2) was incubated for 60 min to allow equilibration and then washed with 2K EBSS. Plates were then transferred to a fluorescence plate reader (FLIPR™, Molecular Devices) for fluorescence measurement using an excitation wavelength of 490 nm and an emission wavelength of 565 nm. Compounds were pre-incubated for 5 min at final test concentration in the presence of ouabain (30 μM) to inhibit Na+ efflux through Na+/K+ exchanger. Following the pre-incubation phase, hNav1.8 channels were stimulated with 10 μM of the pyrethroid deltamethrin to prevent channel inactivation. The assay was run for 15 minutes with vehicle and 30 μM tetracaine serving as negative and positive controls, respectively. The peak change in fluorescence relative to negative and positive control wells was calculated and fit with a logistic equation to determine IC50.
PatchXpress Nav1.8 Inhibition Assay
HEK-Nav1.8 β1/β2 cells were recorded in whole cell patch-clamp using the PatchXpress automated patch clamp platforms (Molecular Devices). Cell suspensions were obtained by trypsinization of adherent monolayers, followed by gentle rocking for minimally 30 min. Compounds were prepared from 10 mM DMSO stocks.
Nav1.8 channel variants were evaluated using Protocol 1 in which cells were initially voltage clamped at a holding potential of −100 mV to maintain Nav1.8 in a closed resting state. After current amplitude becomes stable, the mid-point voltage of steady state inactivation was determined for each cell using a series of 5 sec conditioning steps to increasingly depolarized voltages (−100 to 0 mV) The holding potential was then reset to a voltage that produces ˜50% inactivation (Vhalf-set automatically via PatchXpress scripts) so that closed and inactivated channel inhibition could be assessed. Protocol 1 was run at a frequency of 0.1 Hz until current amplitude is steady (automatically determined by PatchXpress scripts). The effect of test reagent on Nav current amplitude was monitored using custom PatchXpress stability scripts which determines the timing of compound addition and washout.
Data were processed and analyzed using DataXpress 2.0 (Molecular Devices). […]

pIC50: −log10 of the molar value.

T1 sequence (Q9Y5Y9 whole entry): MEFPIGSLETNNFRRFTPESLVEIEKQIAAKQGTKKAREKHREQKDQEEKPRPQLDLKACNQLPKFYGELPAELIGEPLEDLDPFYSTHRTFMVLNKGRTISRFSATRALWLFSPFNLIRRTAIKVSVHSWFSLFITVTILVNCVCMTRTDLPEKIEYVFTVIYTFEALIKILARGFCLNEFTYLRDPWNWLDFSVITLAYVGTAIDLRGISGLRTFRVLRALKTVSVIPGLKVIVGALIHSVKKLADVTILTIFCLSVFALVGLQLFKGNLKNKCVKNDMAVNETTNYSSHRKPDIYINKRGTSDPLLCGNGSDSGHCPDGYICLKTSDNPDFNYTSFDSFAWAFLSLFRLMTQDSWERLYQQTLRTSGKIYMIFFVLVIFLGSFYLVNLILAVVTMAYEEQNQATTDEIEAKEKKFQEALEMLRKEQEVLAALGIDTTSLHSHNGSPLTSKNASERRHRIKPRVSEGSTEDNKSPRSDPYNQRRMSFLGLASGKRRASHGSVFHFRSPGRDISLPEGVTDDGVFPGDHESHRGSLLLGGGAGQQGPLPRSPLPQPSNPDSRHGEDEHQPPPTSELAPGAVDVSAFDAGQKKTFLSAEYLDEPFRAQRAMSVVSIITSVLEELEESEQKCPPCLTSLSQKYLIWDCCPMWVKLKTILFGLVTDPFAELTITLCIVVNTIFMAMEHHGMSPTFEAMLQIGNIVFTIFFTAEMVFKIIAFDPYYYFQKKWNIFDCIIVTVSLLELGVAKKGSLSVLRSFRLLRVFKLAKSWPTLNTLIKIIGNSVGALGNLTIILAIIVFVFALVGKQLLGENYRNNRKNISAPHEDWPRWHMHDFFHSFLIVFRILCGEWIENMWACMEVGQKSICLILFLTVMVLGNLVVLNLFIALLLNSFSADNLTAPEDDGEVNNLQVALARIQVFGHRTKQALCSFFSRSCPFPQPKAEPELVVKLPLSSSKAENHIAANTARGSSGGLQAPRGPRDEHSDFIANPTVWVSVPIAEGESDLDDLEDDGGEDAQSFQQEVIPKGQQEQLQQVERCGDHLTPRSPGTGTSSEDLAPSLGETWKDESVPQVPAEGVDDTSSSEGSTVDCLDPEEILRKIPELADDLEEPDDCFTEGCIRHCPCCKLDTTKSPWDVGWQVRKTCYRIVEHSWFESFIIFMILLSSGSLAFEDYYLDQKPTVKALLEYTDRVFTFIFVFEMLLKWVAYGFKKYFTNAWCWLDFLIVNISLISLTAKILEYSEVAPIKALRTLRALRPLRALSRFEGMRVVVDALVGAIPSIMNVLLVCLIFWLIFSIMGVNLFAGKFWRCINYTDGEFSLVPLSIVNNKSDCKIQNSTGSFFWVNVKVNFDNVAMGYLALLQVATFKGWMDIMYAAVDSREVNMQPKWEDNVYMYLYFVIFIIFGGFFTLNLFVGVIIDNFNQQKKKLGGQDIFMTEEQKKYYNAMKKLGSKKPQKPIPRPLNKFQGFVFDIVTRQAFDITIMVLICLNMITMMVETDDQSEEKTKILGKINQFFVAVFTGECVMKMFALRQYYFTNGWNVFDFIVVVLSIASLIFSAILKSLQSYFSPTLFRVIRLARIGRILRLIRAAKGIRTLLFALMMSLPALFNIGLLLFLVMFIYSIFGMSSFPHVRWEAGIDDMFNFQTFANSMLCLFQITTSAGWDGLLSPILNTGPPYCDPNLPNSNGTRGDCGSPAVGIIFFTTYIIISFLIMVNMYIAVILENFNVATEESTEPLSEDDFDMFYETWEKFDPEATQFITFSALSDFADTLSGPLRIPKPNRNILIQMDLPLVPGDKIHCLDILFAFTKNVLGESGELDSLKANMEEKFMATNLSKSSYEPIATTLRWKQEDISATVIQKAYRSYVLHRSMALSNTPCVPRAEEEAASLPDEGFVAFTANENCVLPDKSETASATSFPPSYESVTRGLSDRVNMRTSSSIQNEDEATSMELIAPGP
T1 sequence (Q07699 19-218 partner): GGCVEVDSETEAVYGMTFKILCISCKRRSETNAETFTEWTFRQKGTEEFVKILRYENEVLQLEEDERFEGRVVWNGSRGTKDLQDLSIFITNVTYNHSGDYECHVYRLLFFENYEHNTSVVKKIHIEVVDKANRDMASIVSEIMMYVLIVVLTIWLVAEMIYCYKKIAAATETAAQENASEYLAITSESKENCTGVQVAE

For the compound `COc1ncccc1C(C)NC(=O)c1cnnc(-c2ccc(OCC3CC3)c(Cl)c2)c1` (centres unmarked) [Example 43, 6-(3-chloro-4-(cyclopropylmethoxy)phenyl)-N-(1-(2-methoxypyridin-3-yl)ethyl)pyridazine-4-carboxamide], the pIC50 was 6.00 to 6.30. As for `Cc1ccnc(N2CCOCC2)c1CNC(=O)c1cnnc(-c2ccc(OC(F)(F)F)cc2)c1` [Example 59, N-[(4-methyl-2-morpholino-3-pyridyl)methyl]-6-[4-(trifluoromethoxy)phenyl]pyridazine-4-carboxamide], the negative logarithm of the IC50 (pIC50) is > 6.30. Turning to `CN(C)c1ncccc1CNC(=O)c1cnnc(-c2ccc(OCC3CC3)c(Cl)c2)c1` [Example 28, 6-[3-chloro-4-(cyclopropylmethoxy)phenyl]-N-[[2-(dimethylamino)-3-pyridyl]methyl]pyridazine-4-carboxamide], the pIC50 is > 6.30. Consider `Cc1ccccc1CNC(=O)c1cnnc(-c2ccc(OCC3CC3)c(Cl)c2)c1` [Example 37, 6-[3-chloro-4-(cyclopropylmethoxy)phenyl]-N-(o-tolylmethyl)pyridazine-4-carboxamide], for which the pIC50 was > 6.30. Take `CC1COCCN1c1ncccc1CNC(=O)c1cnnc(-c2ccc(OCC3CC3)c(Cl)c2)c1` (centres unmarked) [Example 23, 6-[3-chloro-4-(cyclopropylmethoxy)phenyl]-N-[[2-(3-methylmorpholin-4-yl)-3-pyridyl]methyl]pyridazine-4-carboxamide]: the pIC50 is > 6.30.

As for `O=C(NCc1cccnc1N1CCOCC1)c1cnnc(-c2ccc(OC(F)(F)F)cc2)c1` [Example 6, N-[(2-morpholino-3-pyridyl)methyl]-6-[4-(trifluoromethoxy)phenyl]pyridazine-4-carboxamide], the pIC50 was > 6.30. The figure for `N#Cc1ccc(-c2cc(C(=O)NCc3ccccc3N3CCOCC3)cnn2)cc1` [Example 58, 6-(4-cyanophenyl)-N-[(2-morpholinophenyl)methyl]pyridazine-4-carboxamide] is > 6.30; for `O=C(NCc1nccnc1N1CCOCC1)c1cnnc(-c2ccc(OCC3CC3)c(Cl)c2)c1` [Example 33, 6-[3-chloro-4-(cyclopropylmethoxy)phenyl]-N-[(3-morpholinopyrazin-2-yl)methyl]pyridazine-4-carboxamide] it is > 6.30; for `COc1ccccc1CNC(=O)c1cnnc(-c2ccc(OCC3CC3)c(Cl)c2)c1` [Example 36, 6-[3-chloro-4-(cyclopropylmethoxy)phenyl]-N-[(2-methoxyphenyl)methyl]pyridazine-4-carboxamide] it is > 6.30. With `O=C(NCc1cncc(F)c1)c1cnnc(-c2ccc(OCC3CC3)c(Cl)c2)c1` [Example 40, 6-[3-chloro-4-(cyclopropylmethoxy)phenyl]-N-[(5-fluoro-3-pyridyl)methyl]pyridazine-4-carboxamide], the pIC50 is > 6.30. Then `O=C(NCc1ccccc1N1CCOCC1)c1cnnc(-c2ccc(OC(F)(F)F)cc2)c1` [Example 57, 6-[4-(trifluoromethoxy)phenyl]-N-[(2-morpholinophenyl)methyl]pyridazine-4-carboxamide], with > 6.30. In the case of `Cc1cc(Cl)ccc1-c1cc(C(=O)NCc2cccnc2N2CCOCC2)cnn1` [Example 4, 6-(4-chloro-2-methyl-phenyl)-N-[(2-morpholino-3-pyridyl)methyl]pyridazine-4-carboxamide], the pIC50 was > 6.30. `CC1COCCN1c1ncccc1CNC(=O)c1cnnc(-c2ccc(OCC3CC3)cc2)c1` (centres unmarked) [Example 50, 6-[4-(cyclopropylmethoxy)phenyl]-N-[[2-(3-methylmorpholin-4-yl)-3-pyridyl]methyl]pyridazine-4-carboxamide]: the pIC50 is < 6.00.

Turning to `Cc1ccnc(N2CCOCC2)c1CNC(=O)c1cnnc(-c2ccc(OCC3CC3)c(Cl)c2)c1` [Example 25, 6-[3-chloro-4-(cyclopropylmethoxy)phenyl]-N-[(4-methyl-2-morpholino-3-pyridyl)methyl]pyridazine-4-carboxamide], the pIC50 was > 6.30. Then `O=C(NCc1cc(F)cnc1N1CCOCC1)c1cnnc(-c2ccc(OCC3CC3)c(Cl)c2)c1` [Example 31, 6-[3-chloro-4-(cyclopropylmethoxy)phenyl]-N-[(5-fluoro-2-morpholino-3-pyridyl)methyl]pyridazine-4-carboxamide], with > 6.30; and `CC1CN(c2ncccc2CNC(=O)c2cnnc(-c3ccc(OCC4CC4)c(Cl)c3)c2)CCO1` (centres unmarked) [Example 22, 6-[3-chloro-4-(cyclopropylmethoxy)phenyl]-N-[[2-(2-methylmorpholin-4-yl)-3-pyridyl]methyl]pyridazine-4-carboxamide], with > 6.30; and `Cc1ccc(CNC(=O)c2cnnc(-c3ccc(OCC4CC4)c(Cl)c3)c2)c(N2CCOCC2)n1` [Example 24, 6-[3-chloro-4-(cyclopropylmethoxy)phenyl]-N-[(6-methyl-2-morpholino-3-pyridyl)methyl]pyridazine-4-carboxamide], with > 6.30. Then `CC(C)Oc1ccc(-c2cc(C(=O)NCc3cccnc3N3CCOCC3)cnn2)cc1F` [Example 14, 6-(3-fluoro-4-isopropoxy-phenyl)-N-[(2-morpholino-3-pyridyl)methyl]pyridazine-4-carboxamide], with > 6.30; and `O=C(NCc1cccnc1N1CC2(COC2)C1)c1cnnc(-c2ccc(OCC3CC3)cc2)c1` [Example 52, 6-[4-(cyclopropylmethoxy)phenyl]-N-[[2-(2-oxa-6-azaspiro[3.3]heptan-6-yl)-3-pyridyl]methyl]pyridazine-4-carboxamide], with < 6.00. Consider `O=C(NCc1cncnc1N1CCOCC1)c1cnnc(-c2ccc(OCC3CC3)c(Cl)c2)c1` [Example 32, 6-[3-chloro-4-(cyclopropylmethoxy)phenyl]-N-[(4-morpholinopyrimidin-5-yl)methyl]pyridazine-4-carboxamide], for which the pIC50 is < 6.00. Then `O=C(NCc1cccnc1N1CCOCC1)c1cnnc(-c2ccc(OCC3CC3)c(Cl)c2)c1` [Example 1, 6-(3-chloro-4-(cyclopropylmethoxy)phenyl)-N-((2-morpholinopyridin-3-yl)methyl)pyridazine-4-carboxamide], with > 6.30. As to `CC(Oc1ccc(-c2cc(C(=O)NCc3cccnc3N3CCOCC3)cnn2)cc1Cl)C1CC1` (centres unmarked) [Example 45, 6-[3-chloro-4-(1-cyclopropylethoxy)phenyl]-N-[(2-morpholino-3-pyridyl)methyl]pyridazine-4-carboxamide], the pIC50 is > 6.30. As for `N#Cc1ccc(-c2cc(C(=O)NCc3cc(F)cnc3N3CCOCC3)cnn2)cc1` [Example 53, 6-(4-cyanophenyl)-N-[(5-fluoro-2-morpholino-3-pyridyl)methyl]pyridazine-4-carboxamide], the pIC50 was 6.00 to 6.30. For `O=C(NCc1ccccc1N1CCOCC1)c1cnnc(-c2ccc(Cl)cc2)c1` [Example 55, 6-(4-chlorophenyl)-N-[(2-morpholinophenyl)methyl]pyridazine-4-carboxamide], the pIC50 is > 6.30.

Regarding `CCOc1ccc(-c2cc(C(=O)NCc3cccnc3N3CCOCC3)cnn2)cc1F` [Example 12, 6-(4-ethoxy-3-fluoro-phenyl)-N-[(2-morpholino-3-pyridyl)methyl]pyridazine-4-carboxamide], the pIC50 is > 6.30.

For `O=C(NCc1cccnc1N1CC2(COC2)C1)c1cnnc(-c2ccc(OCC3CC3)c(Cl)c2)c1` [Example 19, 6-[3-chloro-4-(cyclopropylmethoxy)phenyl]-N-[[2-(2-oxa-6-azaspiro[3.3]heptan-6-yl)-3-pyridyl]methyl]pyridazine-4-carboxamide], the pIC50 was > 6.30.

The record behind these values is patent US11993581B2, “Pyridazine compounds for inhibiting Nav1.8” (Lieber Institute, Inc., priority 2018, dated 2024).
